In the first assay the test system is HCC827 cells (EGFR Exon19 del, non-small cell lung cancer cells). As to the kind of experiment: Cell viability assay (WST/CCK8), HCC827 cells. The class given is cell-based. As to conditions: Homo sapiens, HCC827, 72 h, HCC827 (Exon19 Del), 72 hours, WST (CCK8); read-out: IC50 (half inhibitory concentration). The text has this:
The cell lines with abnormal EGFR expression used are as follows: • HCC827 cells (EGFR Exon19 del, non-small cell lung cancer cells); • PC9 cells (EGFR Exon 19 del, non-small cell lung cancer cells); • PC9BracA1 (EGFR Exon 19 del+T790M, non-small cell lung cancer cells) • H1975 (EGFR Exon T790M+L858R mutation, non-small cell lung cancer cell line) • BT474 cells (HER2 positive breast cancer cells)
All of the half inhibitory concentrations (IC50) of these compounds of the present invention were determined with WST reagent from Fuyuan Biotec Company. The specific experiment procedures are as follows: Cancer cells were planted in 96-well-plate at the density of 3 000 cells per well with 100 μL RPMI1640 completed culture medium. In the next day, compounds with indicated concentrations were added to the cells, DMSO was used as the negative control and the EGFR TKIs were used to treat cells as the positive groups. After 72 hours drug treatment, cell viability was measured by using the WST reagent following the instructions.
The cells were treated with the gradient concentration of these compounds (the maximum concentration: 10 μM; 3-fold dilution ratio, 10 concentration gradients) for 72 hours and then incubated with the WST (CCK8) reagent to determine the cell viability.
As to `COc1cc2ncnc(Nc3ccc(F)c(Cl)c3)c2cc1NC(=O)/C=C/CN1CCC(N2CCN(CCCCCCCCCCCSc3cccc4c3CN(C3CCC(=O)NC3=O)C4=O)CC2)CC1` (stereo not drawn) [SIAIS337040, (E)-N-(4-((3-chloro-4-fluorophenyl)amino)-7-methoxyquinazolin-6-yl)-4-(4-(4-(11-((2-(2,6-dioxopiperidin-3-yl)-1-oxoisoindolin-4-yl)thio)undecyl)piperazin-1-yl)piperidin-1-yl)but-2-enamide], the IC50 is 26.8 nM.

As for `COc1cc2ncnc(Nc3ccc(F)c(Cl)c3)c2cc1NC(=O)/C=C/CN1CCN(C(=O)CCCCC(=O)N[C@H](C(=O)N2C[C@H](O)C[C@H]2C(=O)NCc2ccc(-c3scnc3C)cc2)C(C)(C)C)CC1` [SIAIS249042, (2S,4R)-1-((S)-2-(6-(4-((E)-4-((4-((3-chloro-4-fluorophenyl)amino)-7-methoxyquinazolin-6-yl)amino)-4-oxobut-2-en-1-yl)piperazin-1-yl)-6-oxohexanamido)-3,3-dimethylbutanoyl)-4-hydroxy-N-(4-(4-methylthiazol-5-yl)benzyl)pyrrolidine-2-carboxamide], the IC50 came to 31.3 nM.

As for `COc1cc2ncnc(Nc3ccc(F)c(Cl)c3)c2cc1NC(=O)/C=C/CN1CCN(C(=O)CCOCCOCCOCCNc2cccc3c2C(=O)N(C2CCC(=O)NC2=O)C3=O)CC1` (stereo not drawn) [SIAIS249047, (E)-N-(4-((3-chloro-4-fluorophenyl)amino)-7-methoxyquinazolin-6-yl)-4-(4-(3-(2-(2-(2-((2-(2,6-dioxopiperidin-3-yl)-1,3-dioxoisoindolin-4-yl)amino)ethoxy)ethoxy)ethoxy)propanoyl)piperazin-1-yl)but-2-enamide], the IC50 was found to be 23.6 nM.

Turning to `COc1cc2ncnc(Nc3ccc(F)c(Cl)c3)c2cc1NC(=O)/C=C/CN1CCN(C(=O)COCCOCCOCCOCCSc2cccc3c2CN(C2CCC(=O)NC2=O)C3=O)CC1` (stereo not drawn) [SIAIS262003, (E)-N-(4-((3-chloro-4-fluorophenyl)amino)-7-methoxyquinazolin-6-yl)-4-(4-(14-((2-(2,6-dioxopiperidin-3-yl)-1-oxoisoindolin-4-yl)thio)-3,6,9,12-tetraoxatetradecan-1-oyl)piperazin-1-yl)but-2-enamide], the IC50 stood at 104 nM.

The assay is the same for the next values; noted with them: Homo sapiens, HCC827, 72 h, Table 3, poziotinib-based compounds; HCC827 (Exon19 Del); 72 hours; WST (CCK8); read-out: IC50 (half inhibitory concentration).
Turning to `COc1cc2ncnc(Nc3ccc(Cl)c(Cl)c3F)c2cc1OC1CCN(C(=O)CCOCCOCCOCCOCCC(=O)N[C@H](C(=O)N2C[C@H](O)C[C@H]2C(=O)NCc2ccc(-c3scnc3C)cc2)C(C)(C)C)CC1` [SIAIS249027, (2S,4R)-1-((S)-2-(tert-butyl)-19-(4-((4-((3,4-dichloro-2-fluorophenyl)amino)-7-methoxyquinazolin-6-yl)oxy)piperidin-1-yl)-4,19-dioxo-7,10,13,16-tetraoxa-3-azanonadecan-1-oyl)-4-hydroxy-N-(4-(4-methylthiazol-5-yl)benzyl)pyrrolidine-2-carboxamide], the IC50 was determined as 400 nM.

As for `COc1cc2ncnc(Nc3ccc(Cl)c(Cl)c3F)c2cc1OC1CCN(C(=O)CCOCCOCCOCCOCCOCCC(=O)N[C@H](C(=O)N2C[C@H](O)C[C@H]2C(=O)NCc2ccc(-c3scnc3C)cc2)C(C)(C)C)CC1` [SIAIS249028, (2S,4R)-1-((S)-2-(tert-butyl)-22-(4-((4-((3,4-dichloro-2-fluorophenyl)amino)-7-methoxyquinazolin-6-yl)oxy)piperidin-1-yl)-4,22-dioxo-7,10,13,16,19-pentaoxa-3-azadocosan-1-oyl)-4-hydroxy-N-(4-(4-methylthiazol-5-yl)benzyl)pyrrolidine-2-carboxamide], the IC50 is 240 nM.

Consider `COc1cc2ncnc(Nc3ccc(Cl)c(Cl)c3F)c2cc1OC1CCN(C(=O)CCOCCNc2cccc3c2C(=O)N(C2CCC(=O)NC2=O)C3=O)CC1` (stereo not drawn) [SIAIS249029, 4-((2-(3-(4-((4-((3,4-dichloro-2-fluorophenyl)amino)-7-methoxyquinazolin-6-yl)oxy)piperidin-1-yl)-3-oxopropoxy)ethyl)amino)-2-(2,6-dioxopiperidin-3-yl)isoindoline-1,3-dione], for which the IC50 was 80 nM.

The same assay, now with this note: Homo sapiens, HCC827, 72 h, Table 4, gefitinib and sapitinib-based compounds; HCC827 (Exon19 Del); 72 hours; WST; read-out: IC50 (half inhibitory concentration).
Take `COc1cc2ncnc(Nc3ccc(F)c(Cl)c3)c2cc1OCCCN1CCNCC1` [Gefitinib derivative A (SIAIS184161), N-(3-chloro-4-fluorophenyl)-7-methoxy-6-(3-(piperazin-1-yl)propoxy)quinazolin-4-amine]: the IC50 amounted to 10 nM.

As for `COc1cc2ncnc(Nc3ccc(F)c(Cl)c3)c2cc1OCCCN1CCN(C(=O)CCCSc2cccc3c2C(=O)N(C2CCC(=O)NC2=O)C3=O)CC1` (stereo not drawn) [SIAIS184165, 4-((4-(4-(3-((4-((3-chloro-4-fluorophenyl)amino)-7-methoxyquinazolin-6-yl)oxy)propyl)piperazin-1-yl)-4-oxobutyl)thio)-2-(2,6-dioxopiperidin-3-yl)isoindoline-1,3-dione], the IC50 came to 58 nM.

With `COc1cc2ncnc(Nc3ccc(F)c(Cl)c3)c2cc1OC1CCN(CC(=O)NCCSc2cccc3c2CN(C2CCC(=O)NC2=O)C3=O)CC1` (stereo not drawn) [SIAIS293047, 2-(4-((4-((3-chloro-4-fluorophenyl)amino)-7-methoxyquinazolin-6-yl)oxy)piperidin-1-yl)-N-(2-((2-(2,6-dioxopiperidin-3-yl)-1-oxoisoindolin-4-yl)thio)ethyl)acetamide], the IC50 amounted to 12 nM.

Turning to `COc1cc2ncnc(Nc3cccc(Cl)c3F)c2cc1OC1CCN(CC(=O)NCCCCCCCCSc2cccc3c2CN(C2CCC(=O)NC2=O)C3=O)CC1` (stereo not drawn) [SIAIS293070, 2-(4-((4-((3-chloro-2-fluorophenyl)amino)-7-methoxyquinazolin-6-yl)oxy)piperidin-1-yl)-N-(8-((2-(2,6-dioxopiperidin-3-yl)-1-oxoisoindolin-4-yl)thio)octyl)acetamide], the IC50 came out at 14 nM.

With `COc1cc2ncnc(Nc3ccc(F)c(Cl)c3)c2cc1OC1CCN(CC(=O)O)CC1` [Gefitinib derivative C (SIAIS293033), 2-(4-((4-((3-chloro-4-fluorophenyl)amino)-7-methoxyquinazolin-6-yl)oxy)piperidin-1-yl)acetic acid], the IC50 was 575 nM.

Turning to `COc1cc2ncnc(Nc3cccc(Cl)c3F)c2cc1OC1CCN(CC(=O)NCCCCCCCSc2cccc3c2CN(C2CCC(=O)NC2=O)C3=O)CC1` (stereo not drawn) [SIAIS293069, 2-(4-((4-((3-chloro-2-fluorophenyl)amino)-7-methoxyquinazolin-6-yl)oxy)piperidin-1-yl)-N-(7-((2-(2,6-dioxopiperidin-3-yl)-1-oxoisoindolin-4-yl)thio)heptyl)acetamide], the IC50 turned out to be 9.4 nM.

The same assay, now with this note: Homo sapiens, HCC827, 72 h, Table 5, afatinib-based compounds; HCC827 (Exon19 Del); 72 hours; WST; read-out: IC50 (half inhibitory concentration).
`O=C1CCC(N2Cc3c(SCCCCCC(=O)Nc4cc5c(Nc6ccc(F)c(Cl)c6)ncnc5cc4O[C@H]4CCOC4)cccc3C2=O)C(=O)N1` (stereo partly drawn) [SIAIS1210089, N-(4-((3-chloro-4-fluorophenyl)amino)-7-(((S)-tetrahydrofuran-3-yl)oxy)quinazolin-6-yl)-6-((2-(2,6-dioxopiperidin-3-yl)-1-oxoisoindolin-4-yl)thio)hexanamide]: the IC50 came to 160 nM.

On to `O=C1CCC(N2C(=O)c3cccc(SCCOCCOCCOCCOCCOCC(=O)Nc4cc5c(Nc6ccc(F)c(Cl)c6)ncnc5cc4O[C@H]4CCOC4)c3C2=O)C(=O)N1` (stereo partly drawn) [SIAIS184156, N-(4-((3-chloro-4-fluorophenyl)amino)-7-(((S)-tetrahydrofuran-3-yl)oxy)quinazolin-6-yl)-17-((2-(2,6-dioxopiperidin-3-yl)-1,3-dioxoisoindolin-4-yl)thio)-3,6,9,12,15-pentaoxaheptadecan-1-amide], for which the IC50 was 978 nM.

As for `O=C1CCC(N2C(=O)c3cccc(SCCOCCOCC(=O)Nc4cc5c(Nc6ccc(F)c(Cl)c6)ncnc5cc4O[C@H]4CCOC4)c3C2=O)C(=O)N1` (stereo partly drawn) [SIAIS184153, N-(4-((3-chloro-4-fluorophenyl)amino)-7-(((S)-tetrahydrofuran-3-yl)oxy)quinazolin-6-yl)-2-(2-(2-((2-(2,6-dioxopiperidin-3-yl)-1,3-dioxoisoindolin-4-yl)thio)ethoxy)ethoxy)acetamide], the IC50 turned out to be 316 nM.

Still in this assay, the particulars now being: Homo sapiens, HCC827, 72 h, Table 8, osimertinib-based compounds; HCC827; 72 hours; WST; read-out: IC50 (half inhibitory concentration).
Consider `C=CC(=O)Nc1cc(Nc2nccc(-c3cn(C)c4ccccc34)n2)c(OC)cc1N(C)CCN(C)C(=O)CCCCSc1cccc2c1CN(C1CCC(=O)NC1=O)C2=O` (stereo not drawn) [SIAIS337055, N-(2-((2-acrylamido-5-methoxy-4-((4-(1-methyl-1H-indol-3-yl)pyrimidin-2-yl)amino)phenyl)(methyl)amino)ethyl)-5-((2-(2,6-dioxopiperidin-3-yl)-1-oxoisoindolin-4-yl)thio)-N-methylpentanamide], for which the IC50 was determined as 461 nM.

Turning to `C=CC(=O)Nc1cc(Nc2nccc(-c3cn(C)c4ccccc34)n2)c(OC)cc1N(C)CCN(C)C(=O)CSc1cccc2c1CN(C1CCC(=O)NC1=O)C2=O` (stereo not drawn) [SIAIS337052, N-(2-((2-(2-((2-(2,6-dioxopiperidin-3-yl)-1-oxoisoindolin-4-yl)thio)-N-methylacetamido)ethyl)(methyl)amino)-4-methoxy-5-((4-(1-methyl-1H-indol-3-yl)pyrimidin-2-yl)amino)phenyl)acrylamide], the IC50 was 353 nM.

Source of the values: patent US12564638B2 (SHANGHAITECH UNIVERSITY, priority 2019, dated 2026).
